Measurements published in patent US20240376094A2, “SELECTIVE BCL-XL PROTAC COMPOUNDS AND METHODS OF USE” (Les Laboratoires Servier, priority 2021, published 2024).

Tests used:
Format in all cases: cell-based
Bcl-xL = molecular target: T1, Bcl-xL (Homo sapiens, UniProt Q07817); test: HCT116 Bcl-xL degradation, capillary-based immunoassay (WES); conditions: for DC50: HCT116, 24 h, 9-point serial dilution
T1 construct: Measured levels of Bcl-xL protein of HCT116 cells treated with the tested compounds; host or cells: HCT116
T1 sequence (Q07817 whole entry): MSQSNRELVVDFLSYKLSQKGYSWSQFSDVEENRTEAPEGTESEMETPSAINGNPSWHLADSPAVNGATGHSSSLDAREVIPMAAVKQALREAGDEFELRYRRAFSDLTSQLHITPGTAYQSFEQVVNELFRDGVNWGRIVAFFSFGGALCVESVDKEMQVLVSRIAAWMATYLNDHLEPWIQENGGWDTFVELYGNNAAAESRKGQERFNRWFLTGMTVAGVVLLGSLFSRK
In short: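 HCT116 cells treated 24 h with compound at 10/100 nM and/or 9-point dilution (quadruplicates), then lysed. Bcl-xL measured by capillary WES immunoassay, normalized to cofilin and expressed as % of untreated cells. DC50 from four-parameter curve fit.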

HiBiT-tagged BCL-xL = molecular target: T2, HiBiT-tagged BCL-xL (Homo sapiens, UniProt Q07817); test: NCI-H1650 BCL-xL protein levels, Nano-Glo HiBiT Lytic Detection; conditions: NCI-H1650 expressing HiBiT-tagged BCL-xL, overnight incubation, read-out: Bcl-xl HIBIT NCIH1650 DC50
T2 construct: expressed in transfected cells; host or cells: NCI-H1650 (ATCC No. CRL-5883), engineered HiBiT cell line
T2 sequence (Q07817 whole entry): as above
In short: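 NCI-H1650 cells expressing HiBiT-tagged BCL-xL (5000/well) were treated overnight at 37° C with 10 concentrations, final 0.508 nM-10 μM, in triplicate. Remaining BCL-xL measured by Nano-Glo HiBiT lytic luminescence, normalized to untreated cells; 50% values by four-parameter logistic fit.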

MOLT-4 cells = test: MOLT-4 cell viability, CTG assay; conditions: Homo sapiens, MOLT-4, 48 h
In short: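 Cells grown in RPMI 1640 with 10% FBS at 37° C, 5% CO2, then exposed to compounds for 48 h (11-point 5-fold dilution, triplicates). ATP measured by CellTiter-Glo luminescence; IC50 from four-parameter fit versus control, mean of ≥2 independent experiments.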

[1] = tested on: EBC-1 lung cancer cell line; test: EBC-1 cell proliferation, CellTiter-Glo assay; conditions: Homo sapiens, 120 h; Ebc-1 cell viability, CTG assay, 5 days of treatment; read-out: CTG 5 day Ebc1 GI50
In short: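 EBC-1 cells seeded at 1000 per well overnight, then exposed to 10-point dilutions (0.508 nM–10 μM final) for 5 days at 37 °C, in triplicate. ATP luminescence by CellTiter-Glo, normalised to untreated wells; GI50 from four-parameter logistic fit, runs valid only with at least one doubling.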

SMILES | DC50 (Bcl-xL) | DC50 (HiBiT-tagged BCL-xL) | IC50 (MOLT-4 cells) | GI50 [1] | remaining activity at 0.01 µM (Bcl-xL; HCT-116, HCT116, 10 nM, 24 h, % of untreated cells) | remaining activity at 0.1 µM (Bcl-xL; HCT-116, HCT116, 100 nM, 24 h, % of untreated cells)
Cc1cc(N(CCCCN(C)C(=O)CCCCCCCCCSC(C)(C)[C@H](NC(=O)C2(F)CC2)C(=O)N2C[C@H](O)C[C@H]2C(=O)NCc2ccc(-c3scnc3C)cc2)c2ccc(-c3cnn(CC45CC6(C)CC(C)(C4)CC(OCCN(C)C)(C6)C5)c3C)c(C(=O)O)n2)nnc1Nc1nc2ccccc2s1 [Example 126, 6-[[6-(1,3-benzothiazol-2-ylamino)-5-methyl-pyridazin-3-yl]-[4-[10-[(2R)-2-[(1-fluorocyclopropanecarbonyl)amino]-3-[(2S,4R)-4-hydroxy-2-[[4-(4-methylthiazol-5-yl)phenyl]methylcarbamoyl]pyrrolidin-1-yl]-1,1-dimethyl-3-oxo-propyl]sulfanyldecanoyl-methyl-amino]butyl]amino]-3-[1-[[3-[2-(dimethylamino)ethoxy]-5,7-dimethyl-1-adamantyl]methyl]-5-methyl-pyrazol-4-yl]pyridine-2-carboxylic acid] | > 316 nM | > 1670 nM | 240 nM | 1430 nM | – | –
Cc1ncsc1-c1ccc([C@H](C)NC(=O)[C@@H]2C[C@@H](O)CN2C(=O)[C@@H](NC(=O)CCCCCCCNC(=O)c2nc(N3CCCc4c3nnc(Nc3nc5ccccc5s3)c4C)ccc2-c2cnn(CC34CC5(C)CC(C)(C3)CC(OCCN3CCCC3)(C5)C4)c2C)C(C)(C)C)cc1 [Example 129, 6-[3-(1,3-benzothiazol-2-ylamino)-4-methyl-6,7-dihydro-5H-pyrido[2,3-c]pyridazin-8-yl]-3-[1-[[3,5-dimethyl-7-(2-pyrrolidin-1-ylethoxy)-1-adamantyl]methyl]-5-methyl-pyrazol-4-yl]-N-[8-[[(1S)-1-[(2S,4R)-4-hydroxy-2-[[(1S)-1-[4-(4-methylthiazol-5-yl)phenyl]ethyl]carbamoyl]pyrrolidine-1-carbonyl]-2,2-dimethyl-propyl]amino]-8-oxo-octyl]pyridine-2-carboxamide] | 7.34 nM | 1 nM | 5.3 nM | 3 nM | – | –
Cc1ncsc1-c1ccc([C@H](C)NC(=O)[C@@H]2C[C@@H](O)CN2C(=O)[C@@H](NC(=O)CCCCCCCCCNC(=O)c2nc(N3CCCc4c3nnc(Nc3nc5ccccc5s3)c4C)ccc2-c2cnn(CC34CC5(C)CC(C)(C3)CC(OCCN3CCCC3)(C5)C4)c2C)C(C)(C)C)cc1 [Example 130, 6-[3-(1,3-benzothiazol-2-ylamino)-4-methyl-6,7-dihydro-5H-pyrido[2,3-c]pyridazin-8-yl]-3-[1-[[3,5-dimethyl-7-(2-pyrrolidin-1-ylethoxy)-1-adamantyl]methyl]-5-methyl-pyrazol-4-yl]-N-[10-[[(1S)-1-[(2S,4R)-4-hydroxy-2-[[(1S)-1-[4-(4-methylthiazol-5-yl)phenyl]ethyl]carbamoyl]pyrrolidine-1-carbonyl]-2,2-dimethyl-propyl]amino]-10-oxo-decyl]pyridine-2-carboxamide] | 0.857 nM | 1 nM | 4.04 nM | 2 nM | – | –
Cc1ncsc1-c1ccc([C@H](C)NC(=O)[C@@H]2C[C@@H](O)CN2C(=O)[C@@H](NC(=O)CCCCCCCCCCCNC(=O)c2nc(N3CCCc4c3nnc(Nc3nc5ccccc5s3)c4C)ccc2-c2cnn(CC34CC5(C)CC(C)(C3)CC(OCCN3CCCC3)(C5)C4)c2C)C(C)(C)C)cc1 [Example 131, 6-[3-(1,3-benzothiazol-2-ylamino)-4-methyl-6,7-dihydro-5H-pyrido[2,3-c]pyridazin-8-yl]-3-[1-[[3,5-dimethyl-7-(2-pyrrolidin-1-ylethoxy)-1-adamantyl]methyl]-5-methyl-pyrazol-4-yl]-N-[12-[[(1S)-1-[(2S,4R)-4-hydroxy-2-[[(1S)-1-[4-(4-methylthiazol-5-yl)phenyl]ethyl]carbamoyl]pyrrolidine-1-carbonyl]-2,2-dimethyl-propyl]amino]-12-oxo-dodecyl]pyridine-2-carboxamide] | 1.34 nM | 1 nM | 13.9 nM | 8 nM | – | –
Cc1ncsc1-c1ccc([C@H](C)NC(=O)[C@@H]2C[C@@H](O)CN2C(=O)[C@@H](NC(=O)CCCCCCCCCN(C)CCOC23CC4(C)CC(C)(CC(Cn5ncc(-c6ccc(N7CCCc8c7nnc(Nc7nc9ccccc9s7)c8C)nc6C(=O)O)c5C)(C4)C2)C3)C(C)(C)C)cc1 [Example 133, 6-[3-(1,3-benzothiazol-2-ylamino)-4-methyl-6,7-dihydro-5H-pyrido[2,3-c]pyridazin-8-yl]-3-[1-[[3-[2-[[10-[[(1S)-1-[(2S,4R)-4-hydroxy-2-[[(1S)-1-[4-(4-methylthiazol-5-yl)phenyl]ethyl]carbamoyl]pyrrolidine-1-carbonyl]-2,2-dimethyl-propyl]amino]-10-oxo-decyl]-methyl-amino]ethoxy]-5,7-dimethyl-1-adamantyl]methyl]-5-methyl-pyrazol-4-yl]pyridine-2-carboxylic acid] | – | > 1670 nM | 10.2 nM | 4 nM | 112% | 105%
Cc1ncsc1-c1ccc([C@H](C)NC(=O)[C@@H]2C[C@@H](O)CN2C(=O)[C@@H](NC(=O)CCCCCCCCCN2CCN(CC#Cc3ccc(OCCCc4sc(N5CCCc6c5nnc(Nc5nc7ccccc7s5)c6C)nc4C(=O)O)c(F)c3)CC2)C(C)(C)C)cc1 [Example 134, 2-[3-(1,3-benzothiazol-2-ylamino)-4-methyl-6,7-dihydro-5H-pyrido[2,3-c]pyridazin-8-yl]-5-[3-[2-fluoro-4-[3-[4-[10-[[(1S)-1-[(2S,4R)-4-hydroxy-2-[[(1S)-1-[4-(4-methylthiazol-5-yl)phenyl]ethyl]carbamoyl]pyrrolidine-1-carbonyl]-2,2-dimethyl-propyl]amino]-10-oxo-decyl]piperazin-1-yl]prop-1-ynyl]phenoxy]propyl]thiazole-4-carboxylic acid] | 0.564 nM | 1 nM | 7.19 nM | 2 nM | – | –
Cc1ncsc1-c1ccc([C@H](C)NC(=O)[C@@H]2C[C@@H](O)CN2C(=O)[C@@H](NC(=O)CCCCCCCCCCCCCCCCN(C)CCOC23CC4(C)CC(C)(CC(Cn5ncc(-c6ccc(N7CCCc8c7nnc(Nc7nc9ccccc9s7)c8C)nc6C(=O)O)c5C)(C4)C2)C3)C(C)(C)C)cc1 [Example 145, 6-[3-(1,3-benzothiazol-2-ylamino)-4-methyl-6,7-dihydro-5H-pyrido[2,3-c]pyridazin-8-yl]-3-[1-[[3-[2-[[17-[[(1S)-1-[(2S,4R)-4-hydroxy-2-[[(1S)-1-[4-(4-methylthiazol-5-yl)phenyl]ethyl]carbamoyl]pyrrolidine-1-carbonyl]-2,2-dimethyl-propyl]amino]-17-oxo-heptadecyl]-methyl-amino]ethoxy]-5,7-dimethyl-1-adamantyl]methyl]-5-methyl-pyrazol-4-yl]pyridine-2-carboxylic acid] | 2.17 nM | 2 nM | 2.41 nM | 1 nM | – | –
Cc1ncsc1-c1ccc(CNC(=O)[C@@H]2C[C@@H](O)CN2C(=O)[C@@H](NC(=O)C2(F)CC2)C(C)(C)C)c(OCCCCCCCCCCCCCCN(C)CCOC23CC4(C)CC(C)(CC(Cn5ncc(-c6ccc(N7CCCc8c7nnc(Nc7nc9ccccc9s7)c8C)nc6C(=O)O)c5C)(C4)C2)C3)c1 [Example 146, 6-[3-(1,3-benzothiazol-2-ylamino)-4-methyl-6,7-dihydro-5H-pyrido[2,3-c]pyridazin-8-yl]-3-[1-[[3-[2-[14-[2-[[[(2S,4R)-1-[(2S)-2-[(1-fluorocyclopropanecarbonyl)amino]-3,3-dimethyl-butanoyl]-4-hydroxy-pyrrolidine-2-carbonyl]amino]methyl]-5-(4-methylthiazol-5-yl)phenoxy]tetradecyl-methyl-amino]ethoxy]-5,7-dimethyl-1-adamantyl]methyl]-5-methyl-pyrazol-4-yl]pyridine-2-carboxylic acid] | 0.986 nM | > 1670 nM | 3 nM | 3 nM | – | –
Cc1ncsc1-c1ccc([C@H](C)NC(=O)[C@@H]2C[C@@H](O)CN2C(=O)[C@@H](NC(=O)CCCCCCCCCCCCCN(C)CCOC23CC4(C)CC(C)(CC(Cn5ncc(-c6ccc(N7CCCc8c7nnc(Nc7nc9ccccc9s7)c8C)nc6C(=O)N(C)C)c5C)(C4)C2)C3)C(C)(C)C)cc1 [Example 148, 6-[3-(1,3-benzothiazol-2-ylamino)-4-methyl-6,7-dihydro-5H-pyrido[2,3-c]pyridazin-8-yl]-3-[1-[[3-[2-[[14-[[(1S)-1-[(2S,4R)-4-hydroxy-2-[[(1S)-1-[4-(4-methylthiazol-5-yl)phenyl]ethyl]carbamoyl]pyrrolidine-1-carbonyl]-2,2-dimethyl-propyl]amino]-14-oxo-tetradecyl]-methyl-amino]ethoxy]-5,7-dimethyl-1-adamantyl]methyl]-5-methyl-pyrazol-4-yl]-N,N-dimethyl-pyridine-2-carboxamide] | 1.37 nM | 1 nM | 4.51 nM | 7 nM | – | –
